From patent US20230399374A1, “Compounds, Compositions and Methods of Use to Treat Bone Fractures” (PURDUE RESEARCH FOUNDATION, priority 2020, published 2023)
Non-standard residues stand in square brackets, D forms with d. No end group written: not given here. Aib = CC(C)(N)C(=O)O

Legend:
midshaft femur fracture = assay: Pain/function outcomes, locomotor open-field testing after midshaft femur fracture; type: in vivo, mice; details: for pain/function outcomes, well-being in the open field: 5 weeks post-fracture, measured once a week
Method: Pain/function outcomes in mice were accessed by turning to behavioral testing. Allodynia was evaluated using Von Frey probes, whereas gain was evaluated using DigiGait, functionality was evaluated using running wheels, and anxiety coupled with functionality was evaluated using locomotor open-field testing. Open-field locomotor testing afforded the most consistent measurements.
Mice were habituated to the behavior room for 30-60 minutes before testing locomotor activity. Animals were habituated once for 10 minutes to the locomotor boxes prior to the start of the experiment. They were then placed individually in a locomotor box with infrared light tracking beams for 10 minutes before being removed and placed back in their home cage. The mice were tracked via EthoVision using 3-point directionality testing. Mice were measured for two weeks prior to the experiment. They then underwent the midshaft femur fracture model and were assigned to one of three treatment groups: 1) abaloparatide DE20 twice a week; 2) phosphate buffered saline twice a week; or 3) ibuprofen (0.6 g/L) in their water. The mice were treated for 5 weeks post-fracture and measured once a week.
For FIGS. 26-28, day 0 represents the baseline data pre-fracture. Saline and SEQ ID NO: 4 (1 nmol) were injected twice/week. Ibuprofen was administered constantly in the mice's water at a concentration of 0.6 g/L.

[1] = design: species or system mice; details: mouse, in vivo, sc
Description: (§1) SEQ ID NO: 4 was subcutaneously injected into fracture-bearing mice. […] The results are shown in FIG. 30, which is a graph of hours vs. percent injected dose in blood (cpm/g) of mice with midshaft femoral factures. […] The results are shown in FIG. 31, which is a graph of hours vs. percent injected dose in bone (cpm/g) of mice with midshaft femoral factures.

[2] = test system: fracture site (fractured femur); design: species or system mice; details: mouse, in vivo; for cumulative residence time (AUC) at the fracture site / half-life at the fracture site: sc
Description: as §1

[3] = test system: midshaft femoral fractures; assay: Midshaft femur fracture healing in otherwise healthy mice (micro-CT, bend to failure); type: in vivo; details: for bone deposition in CT images: three weeks after initiation of treatment, FIG. 35
Description: In some instances, elevated accumulation of SEQ ID NO: 4 at the fracture site improves fracture healing (e.g., FIGS. 26-30). In some instances, femur fracture healing times following administration of a starting dose calculated by allometric scaling of the human dose prescribed for abaloparatide (SEQ ID NO: 2) treatment of osteoporosis are compared.
Bone morphometric analyses confirmed a 1.5-fold increase in the ratio of mineralized volume (bone volume; BV) to total bone volume (total volume; TV) in the SEQ ID NO: 4-treated mice.
In some instances, such as, to establish whether the observed increase in bone deposition translates into an improvement in mechanical properties, the force required to bend the healed femurs until they fractured again was measured.
In some instances, the force to fracture in the SEQ ID NO: 4-treated mice exceeded that required to fracture the contralateral healthy femurs in the same mice or similar, unmodified femurs in saline-treated mice.
The length of the targeting oligopeptide was increased to determine if it increased the drug's affinity for broken bone sufficiently that retention of the anabolic payload at the fracture site would be prolonged and less frequent dosing may be required. Mice were doses once every three days, rather than daily. […] The results are shown in FIG. 34, which is a graph of treatment (saline, SEQ ID NO: 3 (0.1 nmol/mg (0.1×), 1 nmol/mg (1×), and 10 nmol/mg (10×), and SEQ ID NO: 4 (0.1 nmol/mg (0.1×), 1 nmol/mg (1×), and 10 nmol/mg (10×)) vs. max load (N) of mice with midshaft femoral factures.

[4] = test system: type I diabetic femur fracture; type: in vivo; details: for callus mineralization (BV) and bone density (BV/TV): four weeks of treatment, micro-CT, FIG. 13 and 14; for strength of the fractures (max load, work to fracture): four weeks, 4-point bend, FIG. 15 and 16
Method: (§2) Targeted conjugates of SEQ ID NO: 5, abaloparatide (SEQ ID NO: 2), SEQ ID NO: 6, and SEQ ID NO: 9 (a conjugate with 10 aspartic acid residues) were synthesized using Fmoc solid-phase peptide synthesis. From SEQ ID NO: 5, amino acids 1-34 were used, and abaloparatide (SEQ ID NO: 2) is a stabilized version of amino acids 1-36 of SEQ ID NO: 1. Diabetes was induced in 40 8-week-old male CD-1 mice via seven subcutaneous injections of streptozotocin (STZ) until blood sugar readings were above 250 mg/dL. The mice were left in this confirmed diabetic state for 2 months to allow the diabetes to take effect on the bones. Then, aseptic surgical techniques were used to place a 23-gauge needle as an intramedullary nail in the femur of the anesthetized mice for internal fixation before fracture was induced with a drop-weight fracture device from RISystem and confirmed by x-ray. The mice received buprenorphine for three days post-fracture. They were dosed subcutaneously with a positive control of insulin, a negative control of vehicle, SEQ ID NO: 5, or abaloparatide (SEQ ID NO: 2) each day for 4 weeks. Fracture healing was assessed qualitatively using micro-CT (Scanco Medical Ag). Fractured femurs were tested for strength in a 4-point-bend-to-failure using an ElectroForce TestBench (TA Instruments, New Castle, DE). Maximum load, stiffness, displacement post-yield, and work-to-fracture data were generated. Statistical analysis was performed using a one-way analysis of variance (ANOVA) with significance reported with p values less than 0.05 (*) and 0.01 (**).
Four compounds were tested. […] Abaloparatide (SEQ ID NO: 2) is a stabilized version of parathyroid-related protein hormone. Dasatinib is an […] with off-target effects on both osteoblasts and osteoclasts that improve overall bone density. Dasatinib has also proven to be a senolytic. ITGA is a fibronectin mimetic that promotes intramembranous bone fracture healing. […] Therefore, it was hypothesized that the glucose regulating properties of full-length SEQ ID NO: 5 may be beneficial in healing type I diabetic fractures as a dual-action compound that may improve healing via two mechanisms. The compounds were compared against insulin as a positive control and saline as a negative control.
BV represents the bone volume of the 100 thickest micro-CT slices of the fracture callus and is a measure of how much bone has mineralized at the site of fracture repair. BV/TV represents the BV divided by TV of the 100 thickest micro-CT slides of the fracture callus and is a measure of how dense the bone is at the site of fracture repair. Insulin was dosed as 2 IU/day. Doses of 0.1×, 50×, and 10×, are […], and 10 nmol, respectively, of the conjugate delivered daily by subcutaneous injection. SEQ ID NO: 6 was dosed at 10 μmol/kg every other day.
Insulin was dosed at 2 IU/day. Doses of 0.1×, 50×, and 10×, are 0.1 nmol, 50 nmol, and […], of the conjugate delivered daily by subcutaneous injection. SEQ ID NO: 6 was dosed at 10 μmol/kg every other day.

[5] = test system: type I diabetic femur fracture; assay: Fracture repair model, type I diabetes, compounds dosed in conjunction with insulin; type: in vivo, mice; details: with insulin 2 IU/day; for strength (maximum force, work to fracture, modulus): significance relative to insulin-treated group, FIG. 22A-C
Method: as §2
However, since […] patients will not stop taking their insulin to take a compound provided herein, the experiment was repeated with compounds dosed in conjunction with insulin (FIGS. 20-22). […]
For FIGS. 22A-22C, insulin was dosed at 2 IU/day in all groups, except for saline. […] All significance levels were calculated relative to the insulin-treated group, not the saline control group. […]

[6] = dosed once every three days, FIG. 34

For CC(C)Cc1ccc(C(C)C(=O)O)cc1 (stereo not drawn) [ibuprofen, reference compound], the “pain/function outcomes, well-being in the open field” value (midshaft femur fracture) was “did not improve their pain/function outcomes”.
With “AVSEHQLLHDKGKSIQDLRRRELLEKLLxKLHTAEIRATSEVSPNSeeeeeeeeeeeeeeeeeeee [SEQ ID NO: 4]” the “distance traveled in 10 minutes” value (midshaft femur fracture; 1 nmol twice/week, FIG. 26) was “began to run farther”, the “time spent moving in 10 minutes” value (midshaft femur fracture; 1 nmol twice/week, FIG. 27) was “began to run for longer periods of time” and the “mean velocity in 10 minutes” value (midshaft femur fracture; 1 nmol twice/week, FIG. 28) was “began to run faster”. For the same compound, the “pain/function outcomes, well-being in the open field” value (midshaft femur fracture) was “more functionality and better well-being”, the circulation half-life [1] was 3.7 h and the “cumulative systemic exposure (AUC)” value [1] was 20 h. The “cumulative residence time (AUC) at the fracture site relative to abaloparatide” value [2] was 11 fold, the “residence time in the contralateral femur, fold lower than in the fractured femur” value [2] was 8 fold and the “cumulative residence time (AUC) at the fracture site” value [2] was 96 h. The “half-life at the fracture site” value [2] was 67 h, the “maximum load relative to free abaloparatide-treated femurs” value ([3]; FIG. 32) was 2.5 fold and the “work to fracture relative to abaloparatide-treated femurs” value ([3]; FIG. 33) was 3.5 fold. For the same compound, the “max load compared to saline (significance)” value [3, 6] was “significantly higher”, the “maximum load before breakage, abalode 20 versus abalode 10, greater strength” value ([3]; dosed once every three days, trend, FIG. 34) was 20-30% and the “relative effectiveness at improving bone healing” value ([3]; mouse, in vivo) was “more effective (e.g., at improving bone healing) than SEQ ID NO: 3”. The “time at which bones return to their previous unbroken strength” value ([3]; mouse, in vivo) was “between two and three weeks post-fracture”, the “bone deposition in CT images” value [3] was “distributed (e.g., more) evenly across the fractured area” and the “morphometric basis of the increase in bone density” value ([3]; three weeks of therapy) was “primarily due to a reduction in trabecular spacing, rather than an increase in trabecular thickness”. For the same compound, the “increase in the ratio of bone volume to total volume (BV/TV)” value ([3]; three weeks of therapy, compared with abaloparatide-treated mice) was 1.5 fold and the “strength of repaired femurs above original unbroken femurs” value ([3]; versus contralateral healthy femurs) was 30%.
In the case of “SEQ ID NO: 3: SEQ ID NO: 15 (AVSEHQLLHDKGKSIQDLRRRELLEKLLxKLHTAEIRATSEVSPNS) followed by eeeeeeeeee, e = D-glutamic acid (AVSEHQLLHDKGKSIQDLRRRELLEKLL[Aib]KLHTAEIRATSEVSPNS[dE][dE][dE][dE][dE][dE][dE][dE][dE][dE])”, the “max load compared to saline (significance)” value [3, 6] is reported as “lacked significance when dosed every three days”, the “healing in healthy femur fractures” value ([3]; mouse, in vivo) is reported as “repeatedly accelerated healing in healthy femur fractures” and the “relative effectiveness at improving bone healing” value ([3]; mouse, in vivo) is reported as “better than abaloparatide”.
In the case of “SEQ ID NO: 6: a targeted conjugate of dasatinib (e.g., D10-ester-dasatinib) ({ester‑dasatinib}-DDDDDDDDDD)”, the “callus mineralization (BV) and bone density (BV/TV)” value (“callus mineralization” for short) [4] is reported as “without improving the callus mineralization”, the “strength of the fractures (max load, work to fracture)” value [4] is reported as “improved strength” and the “change in body mass” value ([4]; mouse, in vivo) is reported as “lost weight”. For the same compound, the “toxicity (in words)” value ([4]; mouse, in vivo) was “exhibited some toxicity at higher doses” and the “healing in healthy femur fractures” value ([3]; mouse, in vivo) was “repeatedly accelerated healing in healthy femur fractures”.
For “SEQ ID NO: 7: ITGA (fibronectin mimetic cyclic peptide 101) conjugated with 10 glutamic acid residues (HEEEEEEEEEERRETAWA; also: cyclic, ring not given here)”, the “healing in healthy femur fractures” value ([3]; mouse, in vivo) was “repeatedly accelerated healing in healthy femur fractures”.
For “SEQ ID NO: 8: cyclic peptide 102, a conjugate with 10 glutamic acid residues (HEEEEEEEEEERRETAWA; also: cyclic, ring not given here)”, the “mineralization of the callus (bone volume)” value ([5]; four weeks, FIG. 20A) was “improved the mineralization of the callus better than insulin” and the “strength (maximum force, work to fracture, modulus)” value [5] was “significantly improved the strength compared to the insulin control”.
In the case of “abaloparatide [SEQ ID NO: 2, reference compound]”, the “callus mineralization” value [4] is reported as “impacting density the most”, the “strength (maximum force, work to fracture, modulus)” value [5] is reported as “significantly improved the strength compared to the insulin control” and the circulation half-life [1] is reported as 4.2 h. The “cumulative systemic exposure (AUC)” value [1] was 24.4 h, the “cumulative residence time (AUC) at the fracture site” value [2] was 8 h and the “half-life at the fracture site” value [2] was 8.8 h. The “bone deposition in CT images” value [3] was “concentrated on the periphery of the fracture, with minimal density bridging the opposing calluses”.
With insulin [reference compound] the “callus mineralization” value [4] was “improvement in mineralization”, the “strength of the fractures (max load, work to fracture)” value [4] was “not able to restore the quality of the bone” and the blood sugar levels ([4]; four-week treatment period, FIG. 18) was “the only compound to improve blood sugar levels”.
